This is an account of results in patent publication US9295671B2, “Benzenesulfonamide derivatives of quinoxaline, pharmaceutical compositions thereof, and their use in methods for treating cancer” (NEUPHARMA, INC., priority 2011, dated 2016).

Assay [1] concerns A375 (human melanoma cell, BRAF V600E Mutant). Nature of the assay: Inhibition of cancer cell growth, MTT or MTS assay, A375. To be noted: A-375, 72 h, highest concentration 10 μM (Table 5). It counts as cell-based. The method, then:
A375 (human melanoma cell, BRAF V600E Mutant), CHL-1 (human melanoma cell, BRAF wild type), SK-MEL-28 (human melanoma cell, BRAF V600E Mutant) and SK-MEL-31(human melanoma cell, Braf WT Mutant) were purchased from ATCC (American Type Culture Collection, Manassas, Va.). All cell lines were maintained in RPMI 1640 (Hyclone) or DMEM (Hyclone) supplemented with 10% fetal bovine serum (FBS, Hyclone), glutamine (2 mM, Hyclone), and antibiotics (penicillin 100 U/mL and streptomycin 50 μg/mL) at 37° C. in a humidified atmosphere of 5% CO2 in air.
To test IC50 of inhibition of individual compounds against each cell line, A375, SK-MEL-28and SK-MEL-31 cells were first plated in 96-well plates at densities of 3000 cells/well, and CHL-1 2500 cells/well. Cells were then incubated to allow cells to adhere and grow for 24 h. Cells were then treated with a series of concentrations of compounds for 72 h. The highest concentration of compounds was 10 μM for A375 and SK-MEL-28 cells and 100 μM for CHL-1 and SK-MEL-31 cells. Cells were then removed from the incubator and medium was removed by inverting and tapping the plates. 100 μL of MTT (0.5 mg/ml) or 10 μL or MTS was added to each well followed by an incubated at 37° C. for 4 h. Then MTT was removed and 200 μL of DMSO was added to each well, followed by reading the ODs at 570 nm after a 5 second shaking cycle in a 96-well spectrophotometer. For MTS method, MTS was not removed, and the incubated solutions were directly put in a 96-well spectrophotometer for the reading of the ODs at 492 nm.
IC50 was calculated by plotting the concentration of compound vs the percentage of inhibition in treated wells using GraphPad Prism 5. […] The scale utilized in Table 5 is as follows: +++ less than 500 nM; ++ between 500 nM and 1 μM; and + greater than 1 μM.

In assay [2] the target is T1, BRAF V600E (Homo sapiens, UniProt P15056, V600E).
T1 construct: purchased Invitrogen
Nature of the assay: LanthaScreen kinase assay, BRAF V600E. The following applies: ATP 10 μM. It counts as biochemical. The method, then:
(§1) The inhibitory activities of compounds against BRAF or BRAF V600E protein were measured using Invitrogne's LanthaScreen™ kinase assay which is based on fluorescein-labeled MAP2K1 as a substrate. The assay procedure is described as follows.
(§2) The scale utilized in Table 3 is as follows: ++++ less than 50 nM; +++ between 50 and 100 nM; ++ between 100 nM and 1 μM; and + greater than 1 μM.
Background: Time-resolved FRET reads energy transfer from a long-lived donor to a nearby acceptor.

Assay [3] has as its target T2, BRAF (Homo sapiens, UniProt P15056).
T2 construct: purchased Invitrogen
Nature of the assay: LanthaScreen kinase assay, BRAF. In kind it is biochemical. The following applies: ATP 1 μM. Here is the method:
as §1, §2

T2 sequence (P15056 whole entry): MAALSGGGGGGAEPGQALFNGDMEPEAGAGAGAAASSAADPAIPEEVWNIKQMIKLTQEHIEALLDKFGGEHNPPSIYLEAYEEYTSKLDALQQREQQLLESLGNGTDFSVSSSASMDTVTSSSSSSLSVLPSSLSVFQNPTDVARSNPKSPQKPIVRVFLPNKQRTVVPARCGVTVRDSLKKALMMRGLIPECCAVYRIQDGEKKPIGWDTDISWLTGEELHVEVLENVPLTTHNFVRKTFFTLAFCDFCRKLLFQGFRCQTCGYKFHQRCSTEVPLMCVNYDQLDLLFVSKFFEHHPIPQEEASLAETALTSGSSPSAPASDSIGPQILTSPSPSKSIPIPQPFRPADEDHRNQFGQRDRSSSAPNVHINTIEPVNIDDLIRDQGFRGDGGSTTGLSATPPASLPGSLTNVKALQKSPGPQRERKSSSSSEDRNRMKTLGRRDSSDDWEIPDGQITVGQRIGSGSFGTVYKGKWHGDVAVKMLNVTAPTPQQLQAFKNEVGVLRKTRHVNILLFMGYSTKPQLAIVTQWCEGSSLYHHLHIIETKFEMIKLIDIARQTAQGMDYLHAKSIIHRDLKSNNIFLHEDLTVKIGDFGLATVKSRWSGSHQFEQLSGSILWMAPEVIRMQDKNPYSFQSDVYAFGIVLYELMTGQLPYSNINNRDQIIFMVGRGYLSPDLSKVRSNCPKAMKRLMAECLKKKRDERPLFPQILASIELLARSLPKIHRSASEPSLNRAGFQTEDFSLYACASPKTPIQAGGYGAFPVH
T1 sequence (P15056 whole entry V600E): as the sequence (P15056 whole entry) above, with V600E counted along it

Consider `CCCS(=O)(=O)Nc1cc(F)c(F)c(C(=O)c2ccc3ncc(C)nc3c2)c1F` [Compound C19, N-(2,4,5-trifluoro-3-(3-methylquinoxaline-6-carbonyl)phenyl)propane-1-sulfonamide], for which the IC50 was over 1 µM in assay [1], 0.1 to 1 µM in assay [2] and 0.1 to 1 µM in assay [3].

Turning to `CCCS(=O)(=O)Nc1cc(F)c(F)c(C(=O)c2ccc3ncc(-n4ccnc4C)nc3c2)c1F` [Compound C20, N-(2,4,5-trifluoro-3-(3-(2-methyl-1H-imidazol-1-yl)quinoxaline-6-carbonyl)phenyl)propane-1-sulfonamide], the IC50 in assay [1] is under 0.5 µM; in assay [2] it was under 0.05 µM; in assay [3] it was 0.05 to 0.1 µM.

As to `CCCS(=O)(=O)Nc1cc(F)c(F)c(C(=O)c2ccc3ncc(-n4cnc(C)c4)nc3c2)c1F` [Compound C21, N-(2,4,5-trifluoro-3-(3-(4-methyl-1H-imidazol-1-yl)quinoxaline-6-carbonyl)phenyl)propane-1-sulfonamide], the IC50 in assay [1] is under 0.5 µM; in assay [2] it was under 0.05 µM; in assay [3] it was under 0.05 µM.

Consider `CCCS(=O)(=O)Nc1cc(F)c(F)c(C(=O)c2ccc3ncc(OCCOC)nc3c2)c1F` [Compound C22, N-(2,4,5-trifluoro-3-(3-(2-methoxyethoxy)quinoxaline-6-carbonyl)phenyl)propane-1-sulfonamide], for which the concentration for half-maximal inhibition (IC50) in assay [1] is under 0.5 µM; in assay [2], 0.05 to 0.1 µM; in assay [3] it was 0.05 to 0.1 µM.

For `CCCS(=O)(=O)Nc1cc(F)c(F)c(C(=O)c2ccc3ncc(-n4ccnc4)nc3c2)c1F` [Compound C23, N-(3-(3-(1H-imidazol-1-yl)quinoxaline-6-carbonyl)-2,4,5-trifluorophenyl)propane-1-sulfonamide], the IC50 was under 0.5 µM in assay [1], under 0.05 µM in assay [2] and under 0.05 µM in assay [3].

Turning to `CCCS(=O)(=O)Nc1cc(F)c(F)c(C(=O)c2ccc3ncc(N4CCNCC4)nc3c2)c1F` [Compound C24, N-(2,4,5-trifluoro-3-(3-(piperazin-1-yl)quinoxaline-6-carbonyl)phenyl)propane-1-sulfonamide], the IC50 in assay [1] is under 0.5 µM; in assay [2], under 0.05 µM; in assay [3], under 0.05 µM.

`CCCS(=O)(=O)Nc1cc(F)c(F)c(C(=O)c2ccc3ncc(-c4ccccc4)nc3c2)c1F` [Compound C26, N-(2,4,5-trifluoro-3-(3-phenylquinoxaline-6-carbonyl)phenyl)propane-1-sulfonamide]: the IC50 was 0.5 to 1 µM in assay [1], under 0.05 µM in assay [2] and 0.1 to 1 µM in assay [3].

On to `CCCS(=O)(=O)Nc1cc(F)c(F)c(C(=O)c2ccc3ncc(-c4cn[nH]c4)nc3c2)c1F` [Compound C27, N-(3-(3-(1H-pyrazol-4-yl)quinoxaline-6-carbonyl)-2,4,5-trifluorophenyl)propane-1-sulfonamide], for which the IC50 in assay [1] was under 0.5 µM; in assay [2], under 0.05 µM; in assay [3], under 0.05 µM.

Consider `CCCS(=O)(=O)Nc1cc(F)c(F)c(C(=O)c2ccc3ncc(-c4ccc(F)cc4)nc3c2)c1F` [Compound C28, N-(2,4,5-trifluoro-3-(3-(4-fluorophenyl)quinoxaline-6-carbonyl)phenyl)propane-1-sulfonamide], for which the figures for the IC50 in assay [1], in assay [2] and in assay [3] were 0.5 to 1 µM, 0.05 to 0.1 µM and 0.1 to 1 µM, respectively.

Take `O=C(c1ccc2ncc(N3CCOCC3)nc2c1)c1c(F)c(F)cc(NS(=O)(=O)C2CC2)c1F` [Compound C29, N-(2,4,5-trifluoro-3-(3-morpholinoquinoxaline-6-carbonyl)phenyl)cyclopropanesulfonamide]: the IC50 is under 0.5 µM in assay [1], 0.1 to 1 µM in assay [2] and 0.1 to 1 µM in assay [3].

On to `CCCS(=O)(=O)Nc1cc(F)c(F)c(C(=O)c2ccc3ncc(-c4cccnc4)nc3c2)c1F` [Compound C30, N-(2,4,5-trifluoro-3-(3-(pyridin-3-yl)quinoxaline-6-carbonyl)phenyl)propane-1-sulfonamide], for which the IC50 in assay [1] is under 0.5 µM; in assay [2], under 0.05 µM; in assay [3], under 0.05 µM.

As for `CCCS(=O)(=O)Nc1cc(F)c(F)c(C(=O)c2ccc3ncc(-c4ccncc4)nc3c2)c1F` [Compound C33, N-(2,4,5-trifluoro-3-(3-(pyridin-4-yl)quinoxaline-6-carbonyl)phenyl)propane-1-sulfonamide], the IC50 was under 0.5 µM in assay [1], under 0.05 µM in assay [2] and under 0.05 µM in assay [3].

Regarding `CCCS(=O)(=O)Nc1cc(F)c(F)c(C(=O)c2ccc3ncc(-c4ccc(C)nc4)nc3c2)c1F` [Compound C34, N-(2,4,5-trifluoro-3-(3-(6-methylpyridin-3-yl)quinoxaline-6-carbonyl)phenyl)propane-1-sulfonamide], the IC50 in assay [1] is under 0.5 µM; in assay [2], under 0.05 µM; in assay [3] it was under 0.05 µM.

In the case of `CCCS(=O)(=O)Nc1cc(F)c(F)c(C(=O)c2ccc3ncc(F)nc3c2)c1F` [Compound C35, N-(2,4,5-trifluoro-3-(3-fluoroquinoxaline-6-carbonyl)phenyl)propane-1-sulfonamide], the IC50 was over 1 µM in assay [1], under 0.05 µM in assay [2] and 0.05 to 0.1 µM in assay [3].

Consider `CCCS(=O)(=O)Nc1cc(F)c(F)c(C(=O)c2ccc3ncc(C#N)nc3c2)c1F` [Compound C36, N-(3-(3-cyanoquinoxaline-6-carbonyl)-2,4,5-trifluorophenyl)propane-1-sulfonamide], for which the IC50 in assay [1] was 0.5 to 1 µM; in assay [2] it was under 0.05 µM; in assay [3] it was 0.05 to 0.1 µM.

For the compound `CCCS(=O)(=O)Nc1ccc(F)c(C(=O)c2ccc3ncc(N4CCOCC4)nc3c2)c1F` [Compound C38, N-(2,4-difluoro-3-(3-morpholinoquinoxaline-6-carbonyl)phenyl)propane-1-sulfonamide], the IC50 in assay [1] was under 0.5 µM; in assay [2], 0.1 to 1 µM; in assay [3], 0.1 to 1 µM.

For the compound `CCCS(=O)(=O)Nc1cc(F)c(F)c(C(=O)c2ccc3ncc(-n4cncc4C)nc3c2)c1F` [Compound C40, N-(2,4,5-trifluoro-3-(3-(5-methyl-1H-imidazol-1-yl)quinoxaline-6-carbonyl)phenyl)propane-1-sulfonamide], the results for the 50% inhibitory concentration (IC50) in assay [1], in assay [2] and in assay [3] were under 0.5 µM, under 0.05 µM and 0.05 to 0.1 µM, respectively.

For `CCCS(=O)(=O)Nc1ccc(F)c(C(=O)c2ccc3ncc(N4CCOCC4)nc3c2)c1Cl` [Compound C41, N-(2-chloro-4-fluoro-3-(3-morpholinoquinoxaline-6-carbonyl)phenyl)propane-1-sulfonamide], the IC50 in assay [2] and in assay [3] was over 1 µM throughout.

One may read the IC50 as the concentration that inhibits the measured activity by half. A lower IC50 goes with greater potency.
